# Assay results as given in patent US8802597B2, “Herbicidal pyrimidines” (E I du Pont de Nemours and Company, priority 2003, dated 2014).
# Key:
# Assay in all cases: Test G pre/postemergence
# Assay type in all cases: in vivo
# [1] = tested on: quackgrass (Elytrigia repens)
# Summary of the method: (§1)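 Test chemicals in a non-phytotoxic solvent blend with surfactant are applied to soil after seeding or to foliage of 2–18 cm seedlings. Greenhouse response is scored visually at 12–21 days on a 0 to 100 control scale.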
# [2] = tested on: barnyardgrass (Echinochloa crus-galli)
# Summary of the method: as §1
# [3] = tested on: downy bromegrass (Bromus tectorum)
# Summary of the method: as §1
# [4] = tested on: common chickweed (Stellaria media)
# Summary of the method: as §1
# [5] = tested on: common ragweed (Ambrosia elatior)
# Summary of the method: as §1
# [6] = tested on: prickly sida (Sida spinosa)
# Summary of the method: as §1
# [7] = tested on: large crabgrass (Digitaria sanguinalis)
# Summary of the method: as §1
# [8] = tested on: southern sandbur (Cenchrus echinatus)
# Summary of the method: as §1
# [9] = tested on: common groundsel (Senecio vulgaris)
# Summary of the method: as §1
# [10] = tested on: guineagrass (Panicum maximum)
# Summary of the method: as §1
# [11] = tested on: itchgrass (Rottboellia cochinchinensis)
# Summary of the method: as §1
# [12] = Postemergence, 250 g ai/ha, scale 0 to 100
# [13] = Postemergence, 500 g ai/ha, scale 0 to 100
# [14] = Postemergence, 62 g ai/ha, scale 0 to 100
# [15] = Postemergence, 125 g ai/ha, scale 0 to 100
# [16] = Postemergence, 375 g ai/ha, scale 0 to 100
# [17] = Preemergence, 62 g ai/ha, scale 0-100
# [18] = Preemergence, 125 g ai/ha, scale 0-100
# [19] = Preemergence, 250 g ai/ha, scale 0-100
# [20] = Preemergence, 500 g ai/ha, scale 0-100
# [21] = Preemergence, 500 g ai/ha, scale 0 to 100
# [22] = Preemergence, 375 g ai/ha, scale 0 to 100
structure (smiles),measurement,setting,value
"CCOC(=O)c1nc(C2CC2)nc(N)c1Br [Compound 1, ethyl 6-amino-5-bromo-2-cyclopropyl-4-pyrimidinecarboxylate]","Plant response rating, Quackgrass",[1]; [12],60
same,"Plant response rating, Quackgrass",[1]; [13],70
same,"Plant response rating, Quackgrass",[1]; [14],10
same,"Plant response rating, Quackgrass",[1]; [15],30
same,"Plant response rating, Quackgrass",[1]; [16],70
same,"Plant response rating, Quackgrass",[1]; [17],10
same,"Plant response rating, Quackgrass",[1]; [18],60
same,"Plant response rating, Quackgrass",[1]; [19],90
same,"Plant response rating, Quackgrass",[1]; [20],95
same,"Plant response rating, Quackgrass",[1]; [21],95
same,"Plant response rating, Barnyardgrass",[2]; [12],70
same,"Plant response rating, Barnyardgrass",[2]; [13],75
same,"Plant response rating, Barnyardgrass",[2]; [14],60
same,"Plant response rating, Barnyardgrass",[2]; [15],60
same,"Plant response rating, Barnyardgrass",[2]; [16],70
same,"Plant response rating, Barnyardgrass",[2]; [17],0
same,"Plant response rating, Barnyardgrass",[2]; [18],20
same,"Plant response rating, Barnyardgrass",[2]; [19],50
same,"Plant response rating, Barnyardgrass",[2]; [21],70
same,"Plant response rating, Barnyardgrass",[2]; [22],70
same,"Plant response rating, Bromegrass, Downy",[3]; [12],60
same,"Plant response rating, Bromegrass, Downy",[3]; [13],80
same,"Plant response rating, Bromegrass, Downy",[3]; [14],30
same,"Plant response rating, Bromegrass, Downy",[3]; [15],30
same,"Plant response rating, Bromegrass, Downy",[3]; [16],70
same,"Plant response rating, Bromegrass, Downy",[3]; [17],0
same,"Plant response rating, Bromegrass, Downy",[3]; [18],20
same,"Plant response rating, Bromegrass, Downy",[3]; [19],95
same,"Plant response rating, Bromegrass, Downy",[3]; [21],95
same,"Plant response rating, Bromegrass, Downy",[3]; [22],95
same,"Plant response rating, Chickweed",[4]; [12],95
same,"Plant response rating, Chickweed",[4]; [15],95
same,"Plant response rating, Chickweed",[4]; [16],100
same,"Plant response rating, Chickweed",[4]; [17],70
same,"Plant response rating, Chickweed",[4]; [18],95
same,"Plant response rating, Chickweed",[4]; [19],95
same,"Plant response rating, Chickweed",[4]; [21],100
same,"Plant response rating, Chickweed",[4]; [22],100
same,"Plant response rating, Ragweed",[5]; [12],95
same,"Plant response rating, Ragweed",[5]; [13],100
same,"Plant response rating, Ragweed",[5]; [14],75
same,"Plant response rating, Ragweed",[5]; [15],95
same,"Plant response rating, Ragweed",[5]; [16],100
same,"Plant response rating, Ragweed",[5]; [17],50
same,"Plant response rating, Ragweed",[5]; [18],95
same,"Plant response rating, Ragweed",[5]; [19],100
same,"Plant response rating, Ragweed",[5]; [20],100
same,"Plant response rating, Ragweed",[5]; [21],100
same,"Plant response rating, Prickly Sida",[6]; [12],90
same,"Plant response rating, Prickly Sida",[6]; [13],95
same,"Plant response rating, Prickly Sida",[6]; [14],70
same,"Plant response rating, Prickly Sida",[6]; [15],70
same,"Plant response rating, Prickly Sida",[6]; [16],95
same,"Plant response rating, Prickly Sida",[6]; [17],70
same,"Plant response rating, Prickly Sida",[6]; [18],100
same,"Plant response rating, Prickly Sida",[6]; [19],100
same,"Plant response rating, Prickly Sida",[6]; [20],100
same,"Plant response rating, Prickly Sida",[6]; [21],100
same,"Plant response rating, Crabgrass, Large",[7]; [12],70
same,"Plant response rating, Crabgrass, Large",[7]; [13],70
same,"Plant response rating, Crabgrass, Large",[7]; [14],50
same,"Plant response rating, Crabgrass, Large",[7]; [15],60
same,"Plant response rating, Crabgrass, Large",[7]; [16],70
same,"Plant response rating, Crabgrass, Large",[7]; [17],20
same,"Plant response rating, Crabgrass, Large",[7]; [18],30
same,"Plant response rating, Crabgrass, Large",[7]; [19],90
same,"Plant response rating, Crabgrass, Large",[7]; [21],90
same,"Plant response rating, Crabgrass, Large",[7]; [22],90
same,"Plant response rating, Sandbur",[8]; [12],95
same,"Plant response rating, Sandbur",[8]; [13],95
same,"Plant response rating, Sandbur",[8]; [14],30
same,"Plant response rating, Sandbur",[8]; [15],60
same,"Plant response rating, Sandbur",[8]; [16],95
same,"Plant response rating, Sandbur",[8]; [17],0
same,"Plant response rating, Sandbur",[8]; [18],30
same,"Plant response rating, Sandbur",[8]; [19],70
same,"Plant response rating, Sandbur",[8]; [20],85
same,"Plant response rating, Sandbur",[8]; [21],85
same,"Plant response rating, Groundsel",[9]; [12],95
same,"Plant response rating, Groundsel",[9]; [13],100
same,"Plant response rating, Groundsel",[9]; [14],60
same,"Plant response rating, Groundsel",[9]; [15],95
same,"Plant response rating, Groundsel",[9]; [16],100
same,"Plant response rating, Groundsel",[9]; [17],60
same,"Plant response rating, Groundsel",[9]; [18],100
same,"Plant response rating, Groundsel",[9]; [19],100
same,"Plant response rating, Groundsel",[9]; [21],100
same,"Plant response rating, Groundsel",[9]; [22],100
same,"Plant response rating, Guineagrass",[10]; [12],95
same,"Plant response rating, Guineagrass",[10]; [13],95
same,"Plant response rating, Guineagrass",[10]; [14],60
same,"Plant response rating, Guineagrass",[10]; [15],70
same,"Plant response rating, Guineagrass",[10]; [17],70
same,"Plant response rating, Guineagrass",[10]; [18],70
same,"Plant response rating, Guineagrass",[10]; [19],85
same,"Plant response rating, Guineagrass",[10]; [21],100
same,"Plant response rating, Guineagrass",[10]; [22],100
same,"Plant response rating, Itchgrass",[11]; [12],60
same,"Plant response rating, Itchgrass",[11]; [13],70
same,"Plant response rating, Itchgrass",[11]; [14],20
same,"Plant response rating, Itchgrass",[11]; [15],40
same,"Plant response rating, Itchgrass",[11]; [16],60
same,"Plant response rating, Itchgrass",[11]; [17],10
same,"Plant response rating, Itchgrass",[11]; [18],30
same,"Plant response rating, Itchgrass",[11]; [19],80
same,"Plant response rating, Itchgrass",[11]; [20],85
same,"Plant response rating, Itchgrass",[11]; [21],90
"COC(=O)c1nc(C2CC2)nc(N)c1Cl [Compound 9, methyl 6-amino-5-chloro-2-cyclopropyl-4-pyrimidinecarboxylate]","Plant response rating, Quackgrass",[1]; [17],70
same,"Plant response rating, Quackgrass",[1]; [19],70
same,"Plant response rating, Quackgrass",[1]; [21],100
same,"Plant response rating, Barnyardgrass",[2]; [17],30
same,"Plant response rating, Barnyardgrass",[2]; [18],70
same,"Plant response rating, Barnyardgrass",[2]; [19],85
same,"Plant response rating, Barnyardgrass",[2]; [21],95
same,"Plant response rating, Bromegrass, Downy",[3]; [17],10
same,"Plant response rating, Bromegrass, Downy",[3]; [18],50
same,"Plant response rating, Bromegrass, Downy",[3]; [19],70
same,"Plant response rating, Bromegrass, Downy",[3]; [21],100
same,"Plant response rating, Chickweed",[4]; [18],100
same,"Plant response rating, Chickweed",[4]; [19],100
same,"Plant response rating, Chickweed",[4]; [21],100
same,"Plant response rating, Ragweed",[5]; [17],95
same,"Plant response rating, Ragweed",[5]; [18],100
same,"Plant response rating, Ragweed",[5]; [19],100
same,"Plant response rating, Ragweed",[5]; [21],100
same,"Plant response rating, Prickly Sida",[6]; [17],95
same,"Plant response rating, Prickly Sida",[6]; [18],100
same,"Plant response rating, Prickly Sida",[6]; [19],100
same,"Plant response rating, Prickly Sida",[6]; [21],100
same,"Plant response rating, Crabgrass, Large",[7]; [17],70
same,"Plant response rating, Crabgrass, Large",[7]; [18],90
same,"Plant response rating, Crabgrass, Large",[7]; [19],90
same,"Plant response rating, Crabgrass, Large",[7]; [21],100
same,"Plant response rating, Sandbur",[8]; [18],80
same,"Plant response rating, Sandbur",[8]; [19],90
same,"Plant response rating, Sandbur",[8]; [21],95
same,"Plant response rating, Guineagrass",[10]; [17],90
same,"Plant response rating, Guineagrass",[10]; [18],100
same,"Plant response rating, Guineagrass",[10]; [19],100
same,"Plant response rating, Guineagrass",[10]; [21],100
same,"Plant response rating, Itchgrass",[11]; [17],30
same,"Plant response rating, Itchgrass",[11]; [18],60
same,"Plant response rating, Itchgrass",[11]; [19],80
same,"Plant response rating, Itchgrass",[11]; [21],85
